The values below come from US6569638B1, “Method for screening compounds for the treatment of neoplasia” (Cell Pathways, Inc, priority 2000, dated 2003).

Data set [1] addresses T1, GST-cGB-PDE5 fusion protein (cGMP binding sites of human PDE5A) (Homo sapiens, UniProt O76074).
T1 construct: made in house; host or cells: E. coli BL21 (DE3)
Put plainly: cGMP binding assay (3H-cGMP competition). To be noted: 3H-cGMP 2 μM, 22° C., 1 hour.

Data set [2] concerns cGMP-specific PDE from HT29 cell extracts. Put plainly: cGMP-specific PDE inhibition. The class given is biochemical, human. The protocol: (Thompson, W. J., Teraski, W. L., Epstein, P. M., Strada, S. J., Advances in Cyclic Nucleotide Research, 10:69-92, 1979, which is incorporated herein by reference). In brief, a solution of defined substrate ^3H-cGMP specific activity (0.2 μM; 100,000 cpm; containing 40 mM Tris-HCl (pH 8.0), 5 mM MgCl2 and 1 mg/mL BSA) is mixed with the drug to be tested in a total volume of 400 μl. The mixture is incubated at 30° C. for 10 minutes with isolated PDE of this invention. Reactions are terminated, for example, by boiling the reaction mixture for 75 seconds. After cooling on ice, 100 μl of 0.5 mg/mL snake venom (O. Hannah venom available from Sigma) is added and incubated for 10 minutes at 30° C. This reaction is then terminated by the addition of an alcohol, e.g. 1 mL of 100% methanol. Assay samples are applied to 1 mL Dowex 1-X8 column; and washed with 1 mL of 100% methanol. The amount of radioactivity in the breakthrough and the wash from the column is combined and measured with a scintillation counter. The degree of phosphodiesterase inhibition is determined by calculating the amount of radioactivity in drug-treated reactions and comparing against a control sample (a reaction mixture lacking the tested compound but with drug solvent).

The next data set deals with SW-480 cell line. Put plainly: Tumor cell growth inhibition. The class given is cell-based, human. From the text: In an alternate embodiment, the method of the present invention involves further determining whether the compound reduces the growth of tumor cells. Various cell lines can be used in the sample depending on the tissue to be tested. For example, these cell lines include: SW-480—colonic adenocarcinoma; HT-29—colonic adenocarcinoma, A-427—lung adenocarcinoma carcinoma; MCF-7—breast adenocarcinoma; and UACC-375—melanoma line; and DU145—prostrate carcinoma. Cytotoxicity data obtained using these cell lines are indicative of an inhibitory effect on neoplastic lesions. These cell lines are well characterized, and are used by the United States National Cancer Institute in their screening program for new anti-cancer drugs.
A compound's ability to inhibit tumor cell growth can be measured using the HT-29 human colon carcinoma cell line obtained from ATCC. […] After six days in culture, the cells are fixed by the addition of cold trichloroacetic acid to a final concentration of 10% and protein levels are measured using the sulforhodamine B (SRB) calorimetric protein stain assay as previously described by Skehan, P., Storeng, R., Scudiero, D., Monks, A., McMahon, J., Vistica, D., Warren, J. T., Bokesch, H., Kenney, S., and Boyd, M. R., “New Colorimetric Assay For Anticancer-Drug Screening,” J. Natl. Cancer Inst. […]
Preferably, an IC50 value is determined and used for comparative purposes. […]

In a further data set the test system is caspase-3 in SW480 cells. Description: Caspase-3 activity with Ac-DEVD-AFC substrate. The class given is cell-based, human. To be noted: 24 hours, sulindac sulfide 200 μM, exisulind 600 μM, Compound A 1 μM, Compound B 10 μM. The protocol: The cells were lysed and the extracts assayed for caspase-3 activity using Ac-DEVD-AFC as the substrate, in the presence or absence of the caspase-3 inhibitor Ac-DEVD-CHO. Caspase-3 activity was calculated by subtracting the AFC fluorescence (excitation; 400 nm, emission; 505 nm) in the presence of Ac-DEVD-CHO from the AFC fluorescence in the absence of Ac-DEVD-CHO.
Protein extracts were then prepared and caspase-3 activity was measured with Ac-DEVD-AFC as the substrate, in the presence or absence of the caspase-3 inhibitor Ac-DEVD-CHO. […] Similar findings were obtained with HCT116 and HT29 cells (data not shown).

The next data set is described as follows: 28-day study in rats. The class given is in vivo.
In data set [3] the test system is JNK1 in SW480 colon cancer cells. Put plainly: JNK1 immunoprecipitation in vitro kinase assay with GST-c-Jun(1-79). It is filed as cell-based, human. To be noted: SW480 cells, one hour; sulindac sulfide 50-500 μM, exisulind 100-600 μM, Compound A 0.1-5 μM, Compound B 1-50 μM. The protocol: The cells were lysed, JNK1 immunoprecipitated with an anti-JNK1 antibody, and the immunoprecipitate (“IP”) assayed for in vitro kinase activity with GST-c-Jun(1-79) as the substrate. The experiments were repeated three times with similar results. Fold activation was measured using a Phosphor Imager.
FIG. 1B: SW480 cells were treated with Compound A (1 μM) for the indicated time periods and in vitro JNK1 kinase activity was determined as described above.
FIG. 2A SW480 cells were treated with either DMSO (−) or Compound A, 0.1 μM; dbcGMP, 500 μM; YC-1, 50 μM; MY-5445, 50 μM; dipyridamole, 10 μM or dbcAMP, 500 μM for one hour. The cells were lysed, JNK1 immunoprecipitated, and the IP assayed for in vitro kinase activity as described in FIG. 1A.
FIG. 2B SW480 cells were pre-treated with either DMSO, KT5720 (2 μM) or Rp-8-pCPT-cGMPS (2 μM) for 2 hours and then treated with Compound B (0, 1 or 10 μM) for one hour. The cells were lysed and assayed for JNK1 activation in the IP as described above.
These concentrations were chosen since they provided optimal induction of apoptosis. Endogenous JNK1 was immunoprecipitated with anti-JNK1 antibody and in vitro kinase assays were performed with GST-c-Jun(1-79) as the substrate. […]
However, the precise role of PKG in signal transduction pathways is not known. […] As a control, KT5720 was used as a protein kinase A (“PKA”)-specific inhibitor. SW480 cells were treated with either DMSO, KT5720 (2 μM) or Rp-8-pCPT-cGMPS (2 μM) for 2 hours and then treated with either DMSO or Compound B (1 or 10 μM) for one hour. Cell extracts were collected and assayed for JNK1 activation.

T1 sequence (O76074 46-539 limits assumed): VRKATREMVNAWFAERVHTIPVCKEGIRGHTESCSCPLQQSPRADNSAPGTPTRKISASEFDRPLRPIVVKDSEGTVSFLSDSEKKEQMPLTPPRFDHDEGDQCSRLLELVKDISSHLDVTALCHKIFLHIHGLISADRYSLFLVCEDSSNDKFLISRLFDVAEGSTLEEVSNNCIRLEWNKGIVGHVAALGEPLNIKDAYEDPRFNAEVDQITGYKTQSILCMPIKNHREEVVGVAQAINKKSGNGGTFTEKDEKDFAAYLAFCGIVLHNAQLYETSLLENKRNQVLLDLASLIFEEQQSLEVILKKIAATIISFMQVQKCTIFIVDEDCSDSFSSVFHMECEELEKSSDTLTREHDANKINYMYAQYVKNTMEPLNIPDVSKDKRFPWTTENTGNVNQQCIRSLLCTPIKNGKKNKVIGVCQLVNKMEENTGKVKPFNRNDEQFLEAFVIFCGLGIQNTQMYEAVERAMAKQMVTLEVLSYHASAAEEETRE

One may read the IC50 as the concentration needed to halve the response being measured. As for `CC1=C(CC(=O)NCc2ccccc2)c2cc(F)ccc2/C1=C\c1ccncc1.Cl` [Compound B, (Z)-5-fluoro-2-methyl-(4-pyridylidene)-3-(N-benzyl)indenylacetamide hydrochloride], the “competition with cGMP for the cGMP binding sites of GST-cGB-PDE5” value in data set [1] is recorded as “None of the PDE5 inhibitors showed any competition with cGMP”. In addition, the IC50 in data set [2] amounted to 0.68 µM. In the data set with SW-480 cell line, this molecule registered an IC50 of 0.7 µM. In addition, in the data set on caspase-3 in SW480 cells, the caspase-3 activation result is “led to activation of caspase-3”. Besides, in “28-day study in rats” (28 days, 2000 mg/kg/day), the liver weights result is “statistically significant increase in liver weights” and the thyroid weights entry was “statistically significant increases in thyroid weights”. For the same molecule, in the data set “28-day study in rats” (28 days, 50, 500 and 2000 mg/kg/day), the clinical observations result was “no abnormal clinical observations attributed to Compound B”. In addition, in data set [3], the JNK1 activation result is listed as “activated JNK1”.

For `CC1=C(CC(=O)O)c2cc(F)ccc2/C1=C\c1ccc(S(C)(=O)=O)cc1` [exisulind, 5-fluoro-2-methyl-1-(p-methylsulfonylbenzylidene)-3-indenylacetic acid], the “competition with cGMP for the cGMP binding sites of GST-cGB-PDE5” value in data set [1] is “None of the PDE5 inhibitors showed any competition with cGMP”. The caspase-3 activation result with caspase-3 in SW480 cells is “led to activation of caspase-3”. The JNK1 activation result in data set [3] is “activated JNK1”.
